Measurements as given in patent publication US8652785B2, “Method of screening a modulator of endothelial NO synthase comprising the use of heme binding protein 1” (Sanofi, priority 2008, dated 2014).
Where two headings read alike, the source gives them in different places. Values belong to the molecule of their own block, whether it stands above or below them.

Experiments:
human Hexahis-HEBP1 = target: T1, human Hexahis-HEBP1 (Homo sapiens, UniProt Q9NRV9); assay: Binding studies by quenching of tryptophan fluorescence
T1 construct: Hexahis (6xHis) (N); made in house; host or cells: E. coli BL21 Star (DE3)
T1 sequence (Q9NRV9 1-189): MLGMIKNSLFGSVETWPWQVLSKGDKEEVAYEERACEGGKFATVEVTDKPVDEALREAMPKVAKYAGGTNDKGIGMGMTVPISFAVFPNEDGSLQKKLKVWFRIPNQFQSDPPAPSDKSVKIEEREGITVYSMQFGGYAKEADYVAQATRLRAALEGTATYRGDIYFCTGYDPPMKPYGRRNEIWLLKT
Text: For carrying out binding studies with human HEBP1, it is possible to utilize the intrinsic fluorescence of the tryptophan residues at λ=340 nm, using an excitation wavelength of λ=295 nm. The resultant fluorescence can be “quenched” by binding of porphyrins in spatial proximity to the tryptophan residues. This leads to a decrease of intrinsic fluorescence, which therefore provides a measure for the binding of a ligand. In order to optimize the experimental conditions for these quench measurements it was first necessary to evaluate the spectroscopic properties of the recombinant Hexahis-HEBP1.
Next, studies of the binding of hemin and protoporphyrin IX (PPIX) to human Hexahis-HEBP1 in the presence of eNOS transcription enhancers by tryptophan quenching were carried out. Binding studies with human HEBP1 are carried out using the intrinsic fluorescence of tryptophan residues that are contained. The fluorescence occurring at λ=340 nm after excitation with a wavelength of λ=295 nm can be “quenched” through the binding of porphyrins in proximity to the tryptophan residues. The measured fluorescence decreases as a function of the concentration of the ligands. Using nonlinear regression, it is possible to calculate the binding parameters.
Hemin and PPIX at concentrations from 30 nM to 10 μM were added to a buffered HEBP1 solution (500 nM) and after incubation for 10 min the tryptophan fluorescence was measured (FIG. 3). It was not possible to use higher porphyrin concentrations owing to the low solubility in aqueous systems.
The influence of the eNOS-transcription enhancers on tryptophan quenching by hemin was investigated next. In the experiments the recombinant human HEBP1 at a concentration of 500 nM was preincubated on ice for 30 min with the eNOS-substance 9257 versus DMSO-control in a binding buffer (pH 7.4) of HEPES (20 mM), sodium chloride (100 mM) and DTT (1 mM). Black, 96-well plates were used as the reaction vessel. Then hemin or protoporphyrin IX was added at varying concentrations through addition of the 200-fold concentrated DMSO stock solution and incubated for 10 min at room temperature. Finally, the tryptophan fluorescence was measured after previous optimization at λexc=295 nm and λem=340 nm in the Safire^2 microplate reader (Tecan Deutschland, Crailsheim, Germany).
First we investigated whether substance 9257 can quench the tryptophan fluorescence of HEBP1. […] Therefore the binding of 9257 was investigated indirectly through competition with hemin. For this, HEBP1 (500 nM) was preincubated with 9257 (10 μM) on ice, versus DMSO-control. After 30 min the hemin was added at varying concentrations of 0.1-10 μM and it was incubated at room temperature for a further 10 min before measuring the tryptophan fluorescence (FIG. 4).

[1] = system: recombinant human proteins on ProtoArrays v3.0; assay: Protein microarray (ProtoArray) labeling and competition, qualitative; type: binding; details: substance 100 μM
Description: (§1) The protein-microarray experiments were carried out using ProtoArrays® v3.0 (Invitrogen, Karlsruhe, Germany). These were nitrocellulose-coated glass plates, on which approx. 5000 recombinant human proteins, in duplicates, were immobilized.
(§2) In the first step the microarrays were incubated for one hour at 4° C. with a MOPS blocking buffer with 0.1% (v/v) Igepal and 1% (w/v) BSA. Then the arrays with the biotin-labeled eNOS transcription enhancers A012 and A013, sometimes in the presence of the unlabeled substance 9257, were incubated at 4° C. for 90 min without shaking, in various test conditions in a MOPS sample buffer with 1% (v/v) Igepal and 1% (w/v) BSA.
(§3) After washing three times, in each case for 1 min, with pure MOPS sample buffer on ice, they were incubated for 30 min with IRDye®680-labeled streptavidin diluted 1/1000 in MOPS sample buffer away from the light, also on ice. IRDye®680- and IRDye®800-labeled secondary antibodies, which recognize the constant Fc-part of the primary antibodies, were used exclusively for the immunodetection of certain proteins. […] The advantage of this wavelength range is the very good signal-to-noise ratio on account of low intrinsic fluorescence. Detection employs the ODYSSEY™ from LI-COR Biosciences (Bad Homburg, Germany). With this instrument it is possible to detect both emission wavelengths on one membrane simultaneously. […]

eNOS promoter = assay: eNOS-transcription test (eNOS-promoter luciferase reporter cell line EA.csr03); type: cell-based; details: Homo sapiens; EA.csr03 cells; read-out: Cellular EC50 in the eNOS-transcription test
Description: The EA.csr03 cells are cells of a stable eNOS-promoter luciferase cell line. It was obtained by transfection of EA.hy926 cells with a firefly luciferase reporter construct, with a 3.5 kb fragment of the eNOS-promoter added. Cultivation of these cells was carried out with IMDM with GlutaMAX™ I supplemented with 100 U/ml penicillin, 100 μg/ml streptomycin, 10% FCS and 0.4 mg/ml geneticin as selection antibiotic. The EA.hy926 cells are a stable human cell line, which was obtained by fusion of HUVEC with the human […] cell line A549. This cell line is characterized by expression of specific endothelial cell markers, e.g. the “van-Willebrand factor”. The cells used are an original culture of Cora Jean Edgell of passage 32. The cells were cultivated in IMDM with GlutaMAX™ I supplemented with 100 U/ml penicillin, 100 μg/ml streptomycin, HAT Hybri-Max™ medium additive (hypoxanthine, aminopterin and thymidine) and Biotect protective medium.
For transcription test for eNOS promoter activation, 20 000 cells per well of the reporter cell line EA.csr03 were sown in a white 96-well cell culture plate. After 24 hours, various dilutions of the substance in cell culture medium were prepared starting from DMSO stock solutions and were preincubated for 10 min at 37° C. on a water bath. Then these incubation media (100 μl/well) were added to the cells. After incubation for 18 hours, the cells were washed twice with DPBS (100 μl/well) and luciferase lysis buffer (50 μl/well) was added. After 10 min, the solubilized luciferase-substrate luciferin (100 μl/well) was added to the cell lysates. During the luciferase-catalyzed oxidation of luciferin to oxyluciferin there is release of chemiluminescence. […] The light units released were measured in the Genios microplate reader from Tecan Deutschland (Crailsheim, Germany).

[2] = target: T2, Phosphoserine aminotransferase 1 (PSAT1) (Homo sapiens, UniProt Q9Y617); assay: Protein microarray (ProtoArray) binding, PSAT1
T2 construct: purchased Invitrogen, Karlsruhe, Germany ProtoArrays v3.0
T2 sequence (Q9Y617 1-370): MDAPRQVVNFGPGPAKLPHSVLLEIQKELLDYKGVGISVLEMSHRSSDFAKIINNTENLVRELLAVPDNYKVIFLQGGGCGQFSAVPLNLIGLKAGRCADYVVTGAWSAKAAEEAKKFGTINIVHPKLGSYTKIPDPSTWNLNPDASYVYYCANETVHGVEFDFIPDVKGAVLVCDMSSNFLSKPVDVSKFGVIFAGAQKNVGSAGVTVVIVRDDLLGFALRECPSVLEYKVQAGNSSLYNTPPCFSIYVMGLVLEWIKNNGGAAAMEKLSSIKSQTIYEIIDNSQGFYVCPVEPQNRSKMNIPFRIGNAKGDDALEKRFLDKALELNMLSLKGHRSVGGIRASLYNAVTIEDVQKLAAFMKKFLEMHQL
Description: as §1, §2
as §3, with “Germany).” for “Germany). With this instrument it is possible to detect both emission wavelengths on one membrane simultaneously.”
(§4) These labeling (A) and competition tests (B) were evaluated by quantifying the fluorescence signals.

[3] = target: T3, Cytidinemonophosphate-N-acetylneuraminic acid-synthetase (CMAS) (Homo sapiens, UniProt Q8NFW8); assay: Protein microarray (ProtoArray) binding, CMAS
T3 construct: purchased Invitrogen, Karlsruhe, Germany ProtoArrays v3.0
Description: as §1, §2
as §3, with “Germany).” for “Germany). With this instrument it is possible to detect both emission wavelengths on one membrane simultaneously.”
as §4

[4] = target: T4, AMP-activated protein kinase, catalytic subunit alpha 1 (PRKAA1) (Homo sapiens, UniProt Q13131); assay: Protein microarray (ProtoArray) binding, PRKAA1
T4 construct: purchased Invitrogen, Karlsruhe, Germany ProtoArrays v3.0
Description: as §1, §2
as §3, with “Germany).” for “Germany). With this instrument it is possible to detect both emission wavelengths on one membrane simultaneously.”
as §4

[5] = target: T5, Mitogen-activated protein kinase 7 (MAPK7) (Homo sapiens, UniProt Q13164); assay: Protein microarray (ProtoArray) binding, MAPK7
T5 construct: purchased Invitrogen, Karlsruhe, Germany ProtoArrays v3.0
Description: as §1, §2
as §3, with “Germany).” for “Germany). With this instrument it is possible to detect both emission wavelengths on one membrane simultaneously.”
as §4

[6] = target: T6, TBP-related Protein 1 (TBPL1) (Homo sapiens, UniProt P62380); assay: Protein microarray (ProtoArray) binding, TBPL1
T6 construct: purchased Invitrogen, Karlsruhe, Germany ProtoArrays v3.0
T6 sequence (P62380 1-186): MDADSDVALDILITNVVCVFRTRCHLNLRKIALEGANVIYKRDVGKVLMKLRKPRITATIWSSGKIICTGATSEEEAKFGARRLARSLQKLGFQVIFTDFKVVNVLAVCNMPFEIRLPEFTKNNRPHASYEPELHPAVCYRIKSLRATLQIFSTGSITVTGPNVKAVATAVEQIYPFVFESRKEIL
Description: as §1, §2
as §3, with “Germany).” for “Germany). With this instrument it is possible to detect both emission wavelengths on one membrane simultaneously.”
as §4

[7] = target: T7, Transcription factor EB (TFEB) (Homo sapiens, UniProt P19484); assay: Protein microarray (ProtoArray) binding, TFEB
T7 construct: purchased Invitrogen, Karlsruhe, Germany ProtoArrays v3.0
T7 sequence (P19484 1-476): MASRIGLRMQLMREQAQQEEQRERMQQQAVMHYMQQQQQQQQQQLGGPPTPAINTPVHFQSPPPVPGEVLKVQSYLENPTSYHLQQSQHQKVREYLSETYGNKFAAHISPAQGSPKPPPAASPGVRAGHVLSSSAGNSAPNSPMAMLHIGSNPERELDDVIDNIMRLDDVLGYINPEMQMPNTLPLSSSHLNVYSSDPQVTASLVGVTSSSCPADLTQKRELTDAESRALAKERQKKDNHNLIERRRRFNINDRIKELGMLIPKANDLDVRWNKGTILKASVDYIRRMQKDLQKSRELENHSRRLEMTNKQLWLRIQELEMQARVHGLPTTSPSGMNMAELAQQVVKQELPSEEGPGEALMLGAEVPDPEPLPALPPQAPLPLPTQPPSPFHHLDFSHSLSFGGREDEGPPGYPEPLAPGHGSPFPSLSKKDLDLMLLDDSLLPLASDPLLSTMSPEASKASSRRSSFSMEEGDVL
Description: as §1, §2
as §3, with “Germany).” for “Germany). With this instrument it is possible to detect both emission wavelengths on one membrane simultaneously.”
as §4

[8] = 0.5 μM HEBP1, ligand 30 nM to 10 μM, 10 min, read-out: IC50 of tryptophan fluorescence quenching
[9] = B: A012 (100 μM) in the presence of unlabeled substance 9257 (25 μM)

T3 sequence (Q8NFW8 whole entry): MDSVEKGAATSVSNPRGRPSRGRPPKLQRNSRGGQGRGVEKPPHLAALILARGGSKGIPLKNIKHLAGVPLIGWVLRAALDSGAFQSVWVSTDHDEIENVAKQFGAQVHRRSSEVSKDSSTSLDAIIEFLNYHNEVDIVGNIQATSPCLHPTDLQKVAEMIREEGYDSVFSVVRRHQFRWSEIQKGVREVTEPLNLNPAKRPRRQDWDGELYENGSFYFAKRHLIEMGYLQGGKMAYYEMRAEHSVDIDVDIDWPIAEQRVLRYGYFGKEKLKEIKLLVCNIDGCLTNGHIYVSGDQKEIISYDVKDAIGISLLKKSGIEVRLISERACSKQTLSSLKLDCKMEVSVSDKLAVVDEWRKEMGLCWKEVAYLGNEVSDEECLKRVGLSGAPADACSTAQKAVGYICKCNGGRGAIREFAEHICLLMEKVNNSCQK
T4 sequence (Q13131 whole entry): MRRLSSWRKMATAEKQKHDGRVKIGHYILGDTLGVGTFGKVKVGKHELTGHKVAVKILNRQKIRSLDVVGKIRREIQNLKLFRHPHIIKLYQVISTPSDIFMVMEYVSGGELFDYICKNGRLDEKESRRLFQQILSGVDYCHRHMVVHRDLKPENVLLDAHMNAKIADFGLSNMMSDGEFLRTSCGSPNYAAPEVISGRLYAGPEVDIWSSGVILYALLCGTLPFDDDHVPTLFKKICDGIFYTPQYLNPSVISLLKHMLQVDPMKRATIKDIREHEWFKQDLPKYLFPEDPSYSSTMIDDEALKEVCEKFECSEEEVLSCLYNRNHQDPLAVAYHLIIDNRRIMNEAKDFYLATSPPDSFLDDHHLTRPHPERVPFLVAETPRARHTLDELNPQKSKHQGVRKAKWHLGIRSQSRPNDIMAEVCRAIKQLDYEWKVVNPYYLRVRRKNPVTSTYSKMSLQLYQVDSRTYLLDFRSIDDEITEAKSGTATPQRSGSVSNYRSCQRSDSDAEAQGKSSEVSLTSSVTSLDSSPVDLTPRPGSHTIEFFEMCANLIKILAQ
T5 sequence (Q13164 whole entry): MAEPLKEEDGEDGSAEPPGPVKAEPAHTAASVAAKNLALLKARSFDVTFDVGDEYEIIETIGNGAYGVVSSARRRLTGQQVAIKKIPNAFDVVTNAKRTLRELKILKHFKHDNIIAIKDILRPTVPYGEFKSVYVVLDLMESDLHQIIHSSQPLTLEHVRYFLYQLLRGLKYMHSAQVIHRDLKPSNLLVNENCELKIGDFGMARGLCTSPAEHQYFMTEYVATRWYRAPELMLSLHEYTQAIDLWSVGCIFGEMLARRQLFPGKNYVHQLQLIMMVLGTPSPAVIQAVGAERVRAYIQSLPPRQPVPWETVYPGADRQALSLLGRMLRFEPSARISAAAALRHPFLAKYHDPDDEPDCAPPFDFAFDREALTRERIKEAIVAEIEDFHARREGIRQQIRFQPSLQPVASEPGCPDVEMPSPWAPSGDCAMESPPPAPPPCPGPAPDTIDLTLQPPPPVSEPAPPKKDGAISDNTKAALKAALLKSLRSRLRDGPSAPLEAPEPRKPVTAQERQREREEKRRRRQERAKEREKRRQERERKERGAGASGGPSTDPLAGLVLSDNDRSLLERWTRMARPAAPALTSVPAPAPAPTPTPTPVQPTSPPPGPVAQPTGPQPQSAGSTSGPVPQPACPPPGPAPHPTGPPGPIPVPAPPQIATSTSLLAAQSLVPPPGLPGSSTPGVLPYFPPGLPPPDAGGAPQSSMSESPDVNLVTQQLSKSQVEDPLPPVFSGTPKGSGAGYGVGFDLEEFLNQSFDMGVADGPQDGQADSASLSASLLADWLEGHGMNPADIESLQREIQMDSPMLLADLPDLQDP

IC50 (human Hexahis-HEBP1; [8]): 13 µM
Molecule: C=CC1=C(C)c2cc3[nH]c(cc4nc(cc5[nH]c(cc1n2)c(C)c5CCC(=O)O)C(CCC(=O)O)=C4C)c(C)c3C=C [PPIX, protoporphyrin IX]

IC50 (human Hexahis-HEBP1; [8]): 3 µM
IC50 (human Hexahis-HEBP1; HEBP1 500 nM, DMSO-control, hemin 0.1-10 μM, read-out: IC50 of the hemin binding curve, DMSO-control): 1.1 µM
potency of hemin relative to PPIX (human Hexahis-HEBP1; from IC50 values): 10 times
Molecule: hemin

EC50 (eNOS promoter): > 10 µM
Molecule: O=C(CCCC[C@@H]1SC[C@@H]2NC(=O)N[C@@H]21)NCCCCCC(=O)NCCOCCOc1ccc(C(=O)N[C@@H]2CCCc3ccccc3C2)cc1 [A013]
labeling of protein duplicates on the microarray [1]: no binding of the substance to the proteins

Fluorescence intensity A ([2]; A: A012 (100 μM)): 3151
Fluorescence intensity B [2, 9]: 2269
EC50 (eNOS promoter): 1.2 µM
Fluorescence intensity A ([3]; A: A012 (100 μM)): 10411
Fluorescence intensity B [3, 9]: 5028
Fluorescence intensity A ([4]; A: A012 (100 μM)): 3791
Fluorescence intensity B [4, 9]: 1206
Fluorescence intensity A ([5]; A: A012 (100 μM)): 4775
Fluorescence intensity B [5, 9]: 1135
Fluorescence intensity A ([6]; A: A012 (100 μM)): 10788
Fluorescence intensity B [6, 9]: 4083
Fluorescence intensity A ([7]; A: A012 (100 μM)): 4987
Fluorescence intensity B [7, 9]: 1333
Molecule: O=C(CCCC[C@@H]1SC[C@@H]2NC(=O)N[C@@H]21)NCCCCCC(=O)NCCOCCOc1ccc(C(=O)N[C@H]2CCCc3ccccc3C2)cc1 [A012]
labeling of protein duplicates on the microarray [1]: readily discernible

EC50 (eNOS promoter): 3 µM
Molecule: O=C(NC1Cc2ccccc2C1)c1ccc(F)cc1 [AVE9488]
